Assay results taken from the NIST ThermoML archive (doi:10.1016/j.fluid.2010.01.023).
Several values for one entry are separate records, joined by “and”; a condition that tells them apart may be missing. Identical values can stand only once.

Assay: xn = mol fraction of the nth substance listed
Settings: Fluid (supercritical or subcritical phases), quasistatic thermogram and barogram, x2 = 0.7393

N [ammonia] + O
Settings	thermal pressure coefficient
601.11 K, Mass density=320.33 kg/m3	257 kPa/K
601.16 K, Mass density=188.05 kg/m3	186 kPa/K and 168 kPa/K
601.19 K, Mass density=227.54 kg/m3	200 kPa/K
601.28 K, Mass density=214.43 kg/m3	203 kPa/K
601.28 K, Mass density=301.94 kg/m3	234 kPa/K
601.34 K, Mass density=285.71 kg/m3	196 kPa/K and 222 kPa/K
601.37 K, Mass density=206.01 kg/m3	199 kPa/K
601.37 K, Mass density=224.53 kg/m3	201 kPa/K
601.45 K, Mass density=297.6 kg/m3	225 kPa/K
601.45 K, Mass density=299.79 kg/m3	239 kPa/K
601.54 K, Mass density=295.31 kg/m3	238 kPa/K
601.71 K, Mass density=230.31 kg/m3	202 kPa/K
601.71 K, Mass density=376.89 kg/m3	327 kPa/K
601.75 K, Mass density=195.99 kg/m3	195 kPa/K and 181 kPa/K
602.05 K, Mass density=218.92 kg/m3	201 kPa/K
602.05 K, Mass density=271.09 kg/m3	197 kPa/K and 217 kPa/K
602.22 K, Mass density=312.91 kg/m3	261 kPa/K
602.26 K, Mass density=206.01 kg/m3	199 kPa/K and 188 kPa/K
602.31 K, Mass density=307.35 kg/m3	241 kPa/K
602.39 K, Mass density=376.89 kg/m3	320 kPa/K
602.45 K, Mass density=260.02 kg/m3	199 kPa/K and 215 kPa/K
602.65 K, Mass density=456.58 kg/m3	458 kPa/K
602.74 K, Mass density=214.43 kg/m3	202 kPa/K and 195 kPa/K
602.74 K, Mass density=342.18 kg/m3	286 kPa/K
602.85 K, Mass density=218.92 kg/m3	202 kPa/K and 198 kPa/K
602.91 K, Mass density=243.97 kg/m3	202 kPa/K and 208 kPa/K
602.96 K, Mass density=224.53 kg/m3	202 kPa/K and 200 kPa/K
602.96 K, Mass density=230.31 kg/m3	202 kPa/K and 204 kPa/K
602.97 K, Mass density=227.54 kg/m3	202 kPa/K and 203 kPa/K
603.08 K, Mass density=311.19 kg/m3	256 kPa/K
603.34 K, Mass density=206.01 kg/m3	182 kPa/K
603.76 K, Mass density=218.92 kg/m3	196 kPa/K
603.85 K, Mass density=214.43 kg/m3	191 kPa/K
603.85 K, Mass density=227.54 kg/m3	203 kPa/K
604.11 K, Mass density=224.53 kg/m3	200 kPa/K
604.11 K, Mass density=230.31 kg/m3	205 kPa/K
604.36 K, Mass density=243.97 kg/m3	210 kPa/K
605.39 K, Mass density=329 kg/m3	275 kPa/K
605.47 K, Mass density=147.43 kg/m3	120 kPa/K
606.58 K, Mass density=376.89 kg/m3	333 kPa/K
606.76 K, Mass density=195.99 kg/m3	172 kPa/K
607.78 K, Mass density=342.18 kg/m3	290 kPa/K
607.95 K, Mass density=376.89 kg/m3	332 kPa/K
608.04 K, Mass density=309.95 kg/m3	261 kPa/K
608.55 K, Mass density=160.07 kg/m3	131 kPa/K
609.42 K, Mass density=320.33 kg/m3	279 kPa/K
609.48 K, Mass density=195.99 kg/m3	168 kPa/K
609.71 K, Mass density=308.35 kg/m3	272 kPa/K
609.99 K, Mass density=295.31 kg/m3	250 kPa/K
610.25 K, Mass density=312.91 kg/m3	270 kPa/K
610.59 K, Mass density=311.19 kg/m3	265 kPa/K
610.85 K, Mass density=307.35 kg/m3	266 kPa/K
611.44 K, Mass density=299.79 kg/m3	257 kPa/K
611.55 K, Mass density=342.18 kg/m3	299 kPa/K
611.61 K, Mass density=230.31 kg/m3	209 kPa/K
611.61 K, Mass density=301.94 kg/m3	259 kPa/K
612.63 K, Mass density=376.89 kg/m3	342 kPa/K
615.35 K, Mass density=160.07 kg/m3	131 kPa/K
616.03 K, Mass density=311.19 kg/m3	277 kPa/K
616.12 K, Mass density=312.91 kg/m3	269 kPa/K
616.28 K, Mass density=309.95 kg/m3	261 kPa/K
616.37 K, Mass density=329 kg/m3	285 kPa/K
617.05 K, Mass density=299.79 kg/m3	260 kPa/K
618.4 K, Mass density=342.18 kg/m3	304 kPa/K
620.1 K, Mass density=297.6 kg/m3	260 kPa/K
624.91 K, Mass density=160.07 kg/m3	132 kPa/K
633.33 K, Mass density=160.07 kg/m3	134 kPa/K
